Measured values from US20240158446A1, “CYCLIC COMPOUND HAVING SELECTIVE INHIBITORY ACTION ON KRAS OVER HRAS AND NRAS” (CHUGAI SEIYAKU KABUSHIKI KAISHA, priority 2021, published 2024).
Where two headings read alike, the source gives them in different places. *1 amine or outer side, *2 acyl side, *3 side chain or, on linkers, in order; H or OH if unused. Where a SMILES comes first, the peptide text is derived from it. Bridges are numbered along the chain shown (N, C = ends). [ ]: non-standard residue; d: D form. The star is where a group is joined. hPhe(3-Cl-4-CF3) = N[C@@H](CCc1ccc(C(F)(F)F)c(Cl)c1)C(=O)O; X23 = C=CCCN([C@@H](Cc1ccc(C(F)(F)F)cc1)C(=O)[*:2])[*:1]; NPrPhe(4-CF3) = CCCN[C@@H](Cc1ccc(C(F)(F)F)cc1)C(=O)O; X15 = Cc1ccc(C[C@@H](C(=O)[*:2])N(CCC(C)C)[*:1])cc1; NMeGly(cPent) = CN[C@H](C(=O)O)C1CCCC1; NMeD = CN[C@@H](CC(=O)O)C(=O)O; NMeL = CN[C@@H](CC(C)C)C(=O)O; N(Me)CH2CH2OMe = COCCN(C)*; Morpholide = C1CN(*)CCO1; NMeA = CN[C@@H](C)C(=O)O; Ac5c = NC1(C(=O)O)CCCC1; Aze = O=C(O)[C@@H]1CCN1; Ac4c = NC1(C(=O)O)CCC1; Sar = CNCC(=O)O

Legend:
[1] = biological target: GDP-bound HRAS wild-type protein (Homo sapiens, UniProt P01112); assay: Binding to HRAS by surface plasmon resonance (SPR), Single Cycle Kinetics; conditions: SPR, GDP-bound HRAS wild-type protein vs GDP-bound KRAS wild-type protein
GDP-bound HRAS wild-type protein, sequence (P01112 whole entry): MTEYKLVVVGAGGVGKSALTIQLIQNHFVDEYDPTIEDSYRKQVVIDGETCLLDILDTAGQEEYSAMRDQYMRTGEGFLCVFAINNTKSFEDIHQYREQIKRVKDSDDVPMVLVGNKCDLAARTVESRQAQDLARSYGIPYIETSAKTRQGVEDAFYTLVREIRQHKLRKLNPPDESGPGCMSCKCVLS

[2] = biological target: GDP-bound NRAS wild-type protein (Homo sapiens, UniProt P01111); assay: Binding to NRAS by surface plasmon resonance (SPR), Single Cycle Kinetics; conditions: SPR, GDP-bound NRAS wild-type protein vs GDP-bound KRAS wild-type protein
GDP-bound NRAS wild-type protein, sequence (P01111 whole entry): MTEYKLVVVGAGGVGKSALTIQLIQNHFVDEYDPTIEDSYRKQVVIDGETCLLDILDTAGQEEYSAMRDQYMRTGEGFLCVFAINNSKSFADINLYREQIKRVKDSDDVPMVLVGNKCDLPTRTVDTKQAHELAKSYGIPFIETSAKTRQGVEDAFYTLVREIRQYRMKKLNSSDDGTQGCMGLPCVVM

[3] = biological target: GDP-bound KRAS wild-type protein (Homo sapiens, UniProt P01116); assay: Binding to KRAS by surface plasmon resonance (SPR), Single Cycle Kinetics; conditions: GDP-bound KRAS wild-type protein, read-out: KRAS KD
GDP-bound KRAS wild-type protein, sequence (P01116 whole entry): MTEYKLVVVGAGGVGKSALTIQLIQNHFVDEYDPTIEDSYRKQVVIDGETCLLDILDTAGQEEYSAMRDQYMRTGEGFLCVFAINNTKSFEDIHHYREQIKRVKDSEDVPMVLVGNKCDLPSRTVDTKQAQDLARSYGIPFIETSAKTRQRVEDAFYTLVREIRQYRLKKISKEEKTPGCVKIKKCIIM

[4] = SPR Single Cycle Kinetics, 1:1 binding model

Row | Kd [3, 4] [nM] | Kd ([3]; SPR, Single Cycle Kinetics) [nM] | SMILES | HRAS/KRAS (ratio of KD value for HRAS to KD value for KRAS) [1] | NRAS/KRAS (ratio of KD value for NRAS to KD value for KRAS) [2] | HRAS/KRAS (ratio of KD value with respect to HRAS to KD value with respect to KRAS) [1] | NRAS/KRAS (ratio of KD value with respect to NRAS to KD value with respect to KRAS) [2]
1 | 0.092 | – | CCCN1C(=O)CN(C)C(=O)CN(C)C(=O)[C@H]([C@@H](C)CC)NC(=O)[C@H](CC(C)C)N(C)C(=O)C[C@@H](C(=O)N(C)CCOC)N(C)C(=O)[C@H](C2CCCC2)N(C)C(=O)C2(CCCC2)NC(=O)[C@@H]2CCCN2C(=O)[C@H](CCc2ccc(C(F)(F)F)c(Cl)c2)NC(=O)CN(C)C(=O)[C@@H]1Cc1ccc(C(F)(F)F)cc1 [PP0391] ([NMeL]I[Sar][Sar][NPrPhe(4-CF3)][Sar][hPhe(3-Cl-4-CF3)]P[Ac5c][NMeGly(cPent)][NMeD]-{N(Me)CH2CH2OMe}; lactam N-11) | B (a compound having 3 or more and less than 10 is denoted as B) | B (a compound having 3 or more and less than 10 is denoted as B) | – | –
2 | – | 0.34 | CCC[C@H]1C(=O)N[C@@H](C2CCCC2)C(=O)N(C)CC(=O)N(C)[C@H]2C/C=C\CCN(C2=O)[C@@H](Cc2ccc(C(F)(F)F)cc2)C(=O)N(C)CC(=O)N[C@@H](CCc2ccc(C(F)(F)F)c(Cl)c2)C(=O)N2CC3(CC3)C[C@H]2C(=O)NC2(CC(C)(C)C2)C(=O)N(C)[C@@H](C2CCCC2)C(=O)N(C)[C@H](C(=O)N(C)C)CC(=O)N1C [PP2986] | A (a compound having 10 or more and less than 20 is denoted as A) | AA (a compound having 20 or more is denoted as AA) | – | –
3 | 0.047 | – | CCCN1C(=O)[C@@H]2CCN2C(=O)[C@H](C)N(C)C(=O)[C@H]([C@@H](C)CC)NC(=O)[C@H](CC(C)C)N(C)C(=O)C[C@@H](C(=O)N(C)C)N(C)C(=O)[C@H](C2CCCC2)N(C)C(=O)C2(CCC2)NC(=O)[C@@H]2CCCN2C(=O)[C@H](CCc2ccc(C(F)(F)F)c(Cl)c2)NC(=O)CN(C)C(=O)[C@@H]1Cc1ccc(C(F)(F)F)cc1 [PP0435] ([NMeL]I[NMeA][Aze][NPrPhe(4-CF3)][Sar][hPhe(3-Cl-4-CF3)]P[Ac4c][NMeGly(cPent)][NMeD]-NMe2; lactam N-11) | – | – | C (A compound having a KD ratio of 0.1 or more and less than 3 is denoted as C) | C (A compound having a KD ratio of 0.1 or more and less than 3 is denoted as C)

The next lines start with the compound.

Row | SMILES | Kd [3, 4] [nM] | Kd ([3]; SPR, Single Cycle Kinetics) [nM] | HRAS/KRAS (ratio of KD value for HRAS to KD value for KRAS) [1] | NRAS/KRAS (ratio of KD value for NRAS to KD value for KRAS) [2] | HRAS/KRAS (ratio of KD value with respect to HRAS to KD value with respect to KRAS) [1] | NRAS/KRAS (ratio of KD value with respect to NRAS to KD value with respect to KRAS) [2]
4 | C=CCCN1C(=O)CN(C)C(=O)CN(C)C(=O)[C@H]([C@@H](C)CC)NC(=O)[C@H](CC(C)C)N(C)C(=O)C[C@@H](C(=O)N2CCOCC2)N(C)C(=O)[C@H](C2CCCC2)N(C)C(=O)C2(CCCC2)NC(=O)[C@@H]2CCCN2C(=O)[C@H](CCc2ccc(C(F)(F)F)c(Cl)c2)NC(=O)CN(C)C(=O)[C@@H]1Cc1ccc(C(F)(F)F)cc1 [PP0129] ([NMeL]I[Sar][Sar][X23][Sar][hPhe(3-Cl-4-CF3)]P[Ac5c][NMeGly(cPent)][NMeD]-Morpholide; lactam N-11) | 0.2 | – | C (A compound having a KD ratio of 0.1 or more and less than 3 is denoted as C) | B (a compound having 3 or more and less than 10 is denoted as B) | – | –
5 | CC[C@H](C)[C@@H]1NC(=O)[C@H](CC(C)C)N(C)C(=O)C[C@@H](C(=O)N2CCOCC2)N(C)C(=O)[C@H](C2CCCC2)N(C)C(=O)C2(CCCC2)NC(=O)[C@@H]2CCCN2C(=O)[C@H](CCc2ccc(C(F)(F)F)c(Cl)c2)NC(=O)CN(C)C(=O)[C@H](Cc2ccc(C)cc2)N(CCC(C)C)C(=O)[C@@H]2CCN2C(=O)[C@H](C)N(C)C1=O [PP0086] ([NMeL]I[NMeA][Aze][X15][Sar][hPhe(3-Cl-4-CF3)]P[Ac5c][NMeGly(cPent)][NMeD]-Morpholide; lactam N-11) | 0.26 | – | B (a compound having 3 or more and less than 10 is denoted as B) | C (A compound having a KD ratio of 0.1 or more and less than 3 is denoted as C) | – | –
